The experiment concerns the target Metabotropic glutamate receptor 5 (Rattus norvegicus, UniProt P31424). The experiment is described as follows: Functional Calcium Flux Assay: For functional assays, HEK293 cells stably expressing recombinant rat mGluR5 were seeded in 384-well plates and dye loaded using Fluo-8. Cells were then washed to remove the un-incorporated dye. Antagonist evaluation was performed following a 15 min incubation of the test compound followed by the addition of submaximal concentration of glutamate. Intracellular calcium ([Ca2+]i) measurements were performed using a fluorometric imaging plate reader (FLIPR, Molecular Devices). The glutamate-evoked increase in [Ca2+]i in the presence of the test compounds was compared to the response to glutamate alone (the positive control). Antagonist inhibition curves were fitted with a 4-parameter logistic equation giving IC50 values, and Hill coefficients using an iterative nonlinear curve fitting algorithm. For orientation: Calcium flux is commonly read through the fluorescence of an indicator in the cells.

Bounds are passed on as bounds.

Metabotropic glutamate receptor 5, sequence (P31424 whole entry): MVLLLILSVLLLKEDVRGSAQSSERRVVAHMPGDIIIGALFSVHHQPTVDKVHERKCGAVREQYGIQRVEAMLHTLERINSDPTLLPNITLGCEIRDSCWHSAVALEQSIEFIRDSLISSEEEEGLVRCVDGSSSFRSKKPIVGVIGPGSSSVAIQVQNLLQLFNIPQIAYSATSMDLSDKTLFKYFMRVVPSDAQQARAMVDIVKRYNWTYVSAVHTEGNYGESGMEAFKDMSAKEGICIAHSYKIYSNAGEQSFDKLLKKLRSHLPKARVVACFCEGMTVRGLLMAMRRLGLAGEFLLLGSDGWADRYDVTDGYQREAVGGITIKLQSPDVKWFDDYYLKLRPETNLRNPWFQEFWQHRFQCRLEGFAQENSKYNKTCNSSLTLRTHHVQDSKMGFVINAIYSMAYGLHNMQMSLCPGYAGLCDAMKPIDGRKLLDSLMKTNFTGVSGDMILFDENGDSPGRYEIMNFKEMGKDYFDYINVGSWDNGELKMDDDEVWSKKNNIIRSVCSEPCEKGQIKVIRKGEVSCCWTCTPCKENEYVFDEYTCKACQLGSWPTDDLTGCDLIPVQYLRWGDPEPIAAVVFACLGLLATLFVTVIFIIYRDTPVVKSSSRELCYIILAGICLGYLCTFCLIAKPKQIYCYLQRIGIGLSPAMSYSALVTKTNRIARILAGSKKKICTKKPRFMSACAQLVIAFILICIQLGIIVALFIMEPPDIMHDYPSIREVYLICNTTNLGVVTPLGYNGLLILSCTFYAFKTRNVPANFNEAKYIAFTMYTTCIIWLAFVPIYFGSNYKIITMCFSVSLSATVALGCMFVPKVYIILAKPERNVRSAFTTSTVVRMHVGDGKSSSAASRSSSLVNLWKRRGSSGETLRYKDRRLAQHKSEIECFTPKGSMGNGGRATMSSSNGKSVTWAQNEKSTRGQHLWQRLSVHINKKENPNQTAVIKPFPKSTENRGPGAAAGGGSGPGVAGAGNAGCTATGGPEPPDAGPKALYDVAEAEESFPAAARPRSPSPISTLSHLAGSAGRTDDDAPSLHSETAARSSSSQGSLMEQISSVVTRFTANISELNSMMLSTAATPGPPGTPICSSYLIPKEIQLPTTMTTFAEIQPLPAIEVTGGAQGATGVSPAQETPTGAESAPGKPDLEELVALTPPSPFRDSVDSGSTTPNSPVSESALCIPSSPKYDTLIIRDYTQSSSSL

Regarding `N#Cc1cc(F)cc(N2CC3CC3(C#Cc3cccc(Cl)n3)C2)c1` (stereo unspecified), the IC50 is below 500 nM.

Usually IC50 stands for the concentration that inhibits the measured activity by half.
